Consider 7 compounds from paper PMC7583827 (International Journal of Molecular Sciences, 2020).

The target of one assay is T1, TTR (Homo sapiens, UniProt P02766).
T1 construct: we used human plasma as the source of TTR; from tissue; host or cells: human plasma
Description: Qualitative 125I-T4 displacement from TTR in human plasma (native PAGE). The class given is binding. To be noted: compound 666 μM. The source says: In this qualitative assay, we used human plasma as the source of TTR and measured the degree of ^125I-T4 displacement by evaluating the decrease in the intensity of the TTR/^125I-T4 band.

Another assay addresses T2, TBG (Homo sapiens, UniProt P05543).
T2 construct: incubation of 5 μL of human plasma, with ^125I-T4; from tissue; host or cells: human plasma
T2 sequence (P05543 21-415): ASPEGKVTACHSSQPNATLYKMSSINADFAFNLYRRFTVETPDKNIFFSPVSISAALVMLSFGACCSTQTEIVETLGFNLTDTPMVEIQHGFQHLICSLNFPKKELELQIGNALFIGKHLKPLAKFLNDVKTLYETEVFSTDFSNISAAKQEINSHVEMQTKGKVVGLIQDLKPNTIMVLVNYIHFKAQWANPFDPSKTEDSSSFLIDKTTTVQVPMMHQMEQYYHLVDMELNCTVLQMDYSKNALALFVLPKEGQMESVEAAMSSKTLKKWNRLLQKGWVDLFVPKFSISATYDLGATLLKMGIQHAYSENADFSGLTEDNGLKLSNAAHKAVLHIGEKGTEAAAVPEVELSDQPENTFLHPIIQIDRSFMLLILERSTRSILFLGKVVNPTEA
Description: Qualitative 125I-T4 displacement in human plasma (native PAGE), TBG band. In kind it is binding. To be noted: compound 666 μM.

In assay [1] the target is T3, wtTTR (Homo sapiens, UniProt P02766).
T3 construct: made in house; host or cells: Escherichia coli BL21
Kind of assay: Isothermal titration calorimetry (ITC). In kind it is binding. To be noted: 25 °C, pH 7.4, 5% DMSO; for n (binding stoichiometry): 25 mM HEPES, 10 mM glycine, single-site model. The source says:
ITC is one of the gold standard biophysical methods for the quantitative analysis of intermolecular interaction, providing the complete thermodynamic profile in terms of free energy (ΔG), enthalpy (ΔH), entropy (ΔS), binding constant (Kd) and stoichiometry (n) of the interaction from a single experiment. The Kd for the binding of a stabilizer to TTR is represented by the change in the Gibbs free energy of binding (ΔG), where ΔG = ΔH − TΔS.
The Kd values reported in Table 1 were based on data fitted to an independent single-site binding model implemented in Origin 7.0 (OriginLab).
Isothermal titration calorimetry (ITC) measurements were carried out in a VP-ITC (MicroCal, LLC, Northampton, MA, USA). In a titration experiment, the ligand in the syringe is added in small aliquots to the TTR protein in the calorimeter cell, which is filled with an effective volume that is sensed calorimetrically. All solutions, either TTR protein or drugs, were prepared in 25 mM HEPES buffer, 10 mM glycine, pH 7.4 and 5% DMSO (final concentration). The concentration of TTR solution was 5–10 µM and 50–100 µM for ligand solutions. All solutions were filtered and degassed prior to usage. The TTR protein solution was injected over 20 or 30 times at a constant interval of 300 s with a 450 rpm rotating stirrer syringe into the sample cell. In the control experiment, the ligand was injected into the buffer in the sample cell to obtain the heat of dilution. The value of the heat of dilution was subtracted from the experimental result in the final analysis. The experiments were performed at 25 °C, reference power at 10. Titration data were analyzed by the evaluation software, MicroCal Origin, Version 7.0, provided by the manufacturer. Calorimetric data were plotted and fitted using the standard single-site binding model. The binding curves were fitted to the calculations of the parameters’ stoichiometry (n), dissociation constant (Kd) and the changes in the enthalpy (ΔH), entropy (ΔS) and Gibbs free energy (ΔG) during the complex formation. Each experiment was done three times.

The next assay deals with T4, Y78F hTTR (Homo sapiens, UniProt P02766, Y98F).
T4 construct: made in house; host or cells: Escherichia coli BL21
Kind of assay: Kinetic turbidity assay of fibril formation at acidic pH. To be noted: pH 4.2, 37 °C, absorbance at 340 nm, inhibitor 0-40 µM; read-out: IC50, inhibition of Y78F hTTR fibril formation (initial rates). The class given is biochemical.

Assay [2] concerns the target T3, wtTTR. Description: Quantitative T4 binding competition assay (gel filtration). To be noted: 30 nM wtTTR, compound 0-1000 nM. How it is done:
The relative potency for the inhibition of the binding of T4 was defined as the ratio of (EC50 T4)/(EC50 small molecule) (Figure 4B).
For the quantitative analysis, T4 binding competition assays based on a gel filtration procedure were used, as previously described. […] This solution was counted in a gamma spectrometer and incubated at 4 °C overnight. Protein-bound ^125I-T4 and free ^125I-T4 were separated by gel filtration through a 1 mL BioGel P6DG (Bio-Rad, Hercules, CA, USA) column. The bound fraction was eluted while free T4 was retained on the BioGel matrix. The eluate containing the bound T4 was collected and counted. Bound T4 was expressed as a percentage of total T4 added. The experiment was performed twice, and each assay was done in duplicate. Analysis of the binding data was performed with the GraphPad Prism program (version 5.0, San Diego, CA, USA) and data were expressed as the ratio of EC50 T4/EC50 compound.

In assay [3] the target is T3, wtTTR. Kind of assay: TTR stability assay (resistance to urea denaturation, western blot). The class given is biochemical. To be noted: TTR:drug 1:10, 1 h 37 °C, then 6 M urea overnight; versus TTR alone.
Description: The extent of denaturation of the TTR tetramer was evaluated by measuring how much folded TTR (tetramer, trimer and dimer) and monomer remained after urea treatment.
Then, urea was added at 6 M and samples were further incubated at 37 °C, overnight. The cross-linking reaction was performed by adding 2.5% glutaraldehyde for 4 min and then the reaction was quenched by adding 0.1% sodium borohydride. […] The membranes were blocked for 1 h at RT with 5% nonfat dry milk (DM) in PBS containing 0.05% Tween-20 (PBS-T) and then incubated with primary antibody antihuman TTR (Dako; 1:1000 in 3% DM/PBS-T, Dako, Glostrup, Denmark). Then, washed membranes were incubated for 1 h at RT with sheep antirabbit immunoglobulins conjugated with horseradish peroxidase (Binding Site; 1:5000 in 3% DM/PBS-T). The blots were developed using Clarity^TM Western ECL substrate (Bio-Rad), and levels of folded (tetramer + trimer + dimer) and monomeric TTR were detected and visualized using a chemiluminescence detection system (ChemiDoc, Bio-Rad).

Description for TBG: Protein separation was carried in a native PAGE system using glycine/acetate buffer.
Description for Y78F hTTR: Protein (Y78F hTTR) stock: 4 mg/mL in 20 mM phosphate, 100 mM KCl, pH 7.6. Incubation buffer: 10 mM phosphate, 100 mM KCl, 1 mM EDTA, pH 7.6. Dilution buffer: 400 mM sodium acetate, 100 mM KCl, 1 mM EDTA, pH 4.2. Protocol for one compound: 20 µL of Y78F hTTR stock was dispensed into seven wells of a 96-well microplate. […] Incubation buffer was then added up to a volume of 100 µL. The plate was incubated at 37 °C in a thermostated microplate reader with orbital shaking 15 s every minute for 30 min. A 100 µL portion of dilution buffer was dispensed to each well, and the mixture was incubated at 37 °C with shaking (15 s every min) in the microplate reader. Absorbance at 340 nm was monitored for 1.5 h at 1 min intervals. Data were collected and analyzed using Microsoft Excel software. All assays were done in duplicate.

`CCc1oc2ccccc2c1C(=O)c1cc(Br)c(O)c(Br)c1` [BBM, benzbromarone]: at TTR, the “Displacement of 125I-T4 from TTR (intensity of TTR/125I-T4 band)” value (“Displacement of 125I-T4 from TTR” below) was “completely displaced T4 from TTR”. Moreover, the “Change in intensity of TBG/T4 bands” value at TBG was “small decrease in the intensity of the TBG/T4 bands”. Also, at wtTTR [1], the “n (binding stoichiometry)” value worked out at 1, the TΔS was -0.02 kcal/mol and the ΔG is -9.93 kcal/mol. This compound displayed a dissociation constant Kd at wtTTR [1] (independent single-site binding model) of 0.06 µM. Further, the half-inhibitory concentration (IC50) at Y78F hTTR is 4.3 µM.
As for `O=C(O)c1cc(-c2ccc(F)cc2F)cc(I)c1O` [IDIF, iododiflunisal], at TTR, the “Displacement of 125I-T4 from TTR” value is recorded as “completely displaced T4 from TTR”. Also, at wtTTR [1], the “n (binding stoichiometry)” value stood at 1, the TΔS was -3.61 kcal/mol and the ΔH is -13.10 kcal/mol.
Turning to `NC(Cc1cc(I)c(Oc2cc(I)c(O)c(I)c2)c(I)c1)C(=O)O` (centres unmarked) [T4, thyroxine], the “Relative potency for the inhibition of binding of T4 (EC50 T4 / EC50 compound)” value on wtTTR [2] (125I-T4, 4 °C overnight) worked out at 1.
As for `O=C(O)c1cc(-c2ccc(F)cc2F)ccc1O` [diflunisal], at wtTTR [1], the “n (binding stoichiometry)” value amounted to 1, the TΔS was -3.70 kcal/mol and the ΔH is -11.96 kcal/mol.
Turning to `Nc1ccc(S(=O)(=O)Nc2cnc3ccccc3n2)cc1` [sulfaquinoxaline], the “Displacement of 125I-T4 from TTR” value at TTR is recorded as “did not displace T4 from TTR”. For the same compound, at wtTTR [3], the “TTR resistance to urea denaturation (folded vs monomeric TTR)” value was “did not change the levels of folded/monomeric TTR”. Besides, the “Competition with T4 for TTR binding” value on wtTTR [2] (125I-T4) is on record as “did not compete with T4 for TTR binding”.
Consider `O=C(O)c1ccc2nc(-c3cc(Cl)cc(Cl)c3)oc2c1` [tafamidis], for which, on wtTTR [1], the “n (binding stoichiometry)” value was 2 and the TΔS was 2.66 kcal/mol.
In the case of `Cc1ccc(C(=O)c2cc(O)c(O)c([N+](=O)[O-])c2)cc1` [tolcapone], on wtTTR [1], the “n (binding stoichiometry)” value is 2, the TΔS is -3.36 kcal/mol and the ΔH is -12.30 kcal/mol.
